# Test: Competitive slurry trials between A-form and D-form (thermodynamic stability)
# Assay type: physicochemical
# Conditions: for Solid form stability in competitive slurry: slurries containing A-form and D-form in methanol, held at about 5° C. to about 50° C.; for Relative thermodynamic stability of crystalline forms: D-form versus A-form, conclusion from competitive slurries in methanol, about 5° C. to about 50° C.
# Procedure: Competitive slurry trials were performed between the A-form (obtained by Example 1) and the D-form (obtained by Example 2).
# Competitive slurries containing the A-form and D-form in methanol were held at any temperatures ranging from about 5° C. to about 50° C.
# Complete conversion of the A-form to the D-form takes place, if the slurry is held at a particular temperature for a sufficient duration of time.
SMILES,Solid form stability in competitive slurry,Relative thermodynamic stability of crystalline forms,Relative thermodynamic stability of crystalline forms (listed as Form D)
"C[C@@H](Oc1cc(NS(=O)(=O)N2CCC2)nc(SCc2cccc(F)c2F)n1)[C@@H](O)CO [A-form, N-[2-[[(2,3-difluorophenyl)methyl]thio]-6-{[(1R,2S)-2,3-dihydroxy-1-methylpropyl]oxy}-4-pyrimidinyl]-1-azetidinesulfonamide]",transforms to the D-form,–,–
"C[C@@H](Oc1cc(NS(=O)(=O)N2CCC2)nc(SCc2cccc(F)c2F)n1)[C@@H](O)CO [D-form, N-[2-[[(2,3-difluorophenyl)methyl]thio]-6-{[(1R,2S)-2,3-dihydroxy-1-methylpropyl]oxy}-4-pyrimidinyl]-1-azetidinesulfonamide]",remained stable,thermodynamically more stable form than the A-form,more thermodynamically stable than the A-form

# Reference: patent US8748603B2, “Crystalline forms of N-[2-[[(2,3-difluorophenyl)methyl]THIO]-6-{[(1R,2S)-2,3-dihydroxy-1-methylpropyl]oxy}-4-pyrimidinyl]-1-azetidinesulfonamide” (AstraZeneca AB, priority 2010, dated 2014)
